Measured values taken from patent US9222949B2, “Salvinorin immunoassay” (priority 2009, dated 2015).
In brackets after ≈: the same amount, converted by molar mass.

Experiments:
[1] = in vivo; cited from earlier work
[2] = tested on: antisera generated to Immunogen I (hapten A-BTG); test: competitive microtiter plate assay (ELISA) for salvinorin A and salvinorin B; format: binding, sheep
[3] = Conjugate I, calibrator 0.16 ng/ml
[4] = Conjugate I, calibrator 0.31 ng/ml
[5] = Conjugate I, calibrator 0.63 ng/ml
[6] = Conjugate I, calibrator 1.25 ng/ml
[7] = Conjugate I, calibrator 2.50 ng/ml
[8] = Conjugate I, calibrator 5.00 ng/ml
[9] = Conjugate I, calibrator 10.00 ng/ml
[10] = Conjugate II, calibrator 0.16 ng/ml
[11] = Conjugate II, calibrator 0.31 ng/ml
[12] = Conjugate II, calibrator 0.63 ng/ml
[13] = Conjugate II, calibrator 1.25 ng/ml
[14] = Conjugate II, calibrator 2.50 ng/ml
[15] = Conjugate II, calibrator 5.00 ng/ml
[16] = Conjugate II, calibrator 10.00 ng/ml

SMILES | action of duration [1] | % CR (percentage cross-reactivity based on 100% specificity to salvinorin A) ([2]; Conjugate I) | IC50 (standard concentration which produces 50% B/Bo) ([2]; Conjugate I) | % B/B0 [2, 3] | % B/B0 [2, 4] | % B/B0 [2, 5] | % B/B0 [2, 6] | % B/B0 [2, 7] | % B/B0 [2, 8] | % B/B0 [2, 9] | % CR (percentage cross-reactivity based on 100% specificity to salvinorin A) ([2]; Conjugate II) | IC50 (standard concentration which produces 50% B/Bo) ([2]; Conjugate II) | % B/B0 [2, 10] | % B/B0 [2, 11] | % B/B0 [2, 12] | % B/B0 [2, 13] | % B/B0 [2, 14] | % B/B0 [2, 15] | % B/B0 [2, 16]
COC(=O)[C@@H]1C[C@H](OC(C)=O)C(=O)[C@H]2[C@@]1(C)CC[C@H]1C(=O)O[C@H](c3ccoc3)C[C@]21C [Salvinorin A] | 10 to 15 min | 100% | 0.277 ng/mL (≈ 0.641 nM) | 62% | 48% | 36% | 26% | 18% | 13% | 9% | 100% | 0.331 ng/mL (≈ 0.765 nM) | 64% | 51% | 39% | 30% | 20% | 14% | 9%
COC(=O)C1CC(O)C(=O)C2C1(C)CCC1C(=O)OC(c3ccoc3)CC12C (stereo not shown) [Salvinorin B] |  | 9.52% | 2.909 ng/mL (≈ 7.45 nM) | 84% | 74% | 70% | 63% | 50% | 43% | 33% | 12.00% | 2.758 ng/mL (≈ 7.06 nM) | 85% | 78% | 71% | 61% | 51% | 43% | 33%
